Source: ChEMBL document CHEMBL4433196, “A novel delocalized lipophilic cation-chlorambucil conjugate inhibits P-glycoprotein in HepG2/ADM cells” (Bioorg Med Chem, 2017)
Active and inactive are the calls of the source. The calls are words filed in the database; no cut-off is given here.

Experiments:
HepG2 = experiment: Cytotoxicity against human HepG2 cells assessed as cell growth inhibition incubated for 72 hrs by MTT assay; format: functional, cell-based; settings: HepG2, 72 h
[1] = Cytotoxicity against human HepG2/ADM cells assessed as cell growth inhibition incubated for 72 hrs by MTT assay; format: functional, cell-based
L02 = experiment: Cytotoxicity against human L02 cells assessed as cell growth inhibition incubated for 72 hrs by MTT assay; format: cell-based; settings: L02, 72 h
NIH3T3 = experiment: Cytotoxicity against mouse NIH/3T3 cells assessed as cell growth inhibition incubated for 72 hrs by MTT assay; format: cell-based; settings: NIH3T3, 72 h
[2] = Induction of apoptosis in human HepG2/ADM cells assessed as early apoptotic cells at 20 uM incubated for 72 hrs by Annexin V-FITC/SYTOX Red staining based flow cytometric analysis (reference value: 5.52%); format: functional
[3] = Induction of apoptosis in human HepG2/ADM cells assessed as viable cell at 20 uM incubated for 72 hrs by Annexin V-FITC/SYTOX Red staining based flow cytometric analysis (reference value: 94.4%); format: functional
[4] = Induction of apoptosis in human HepG2/ADM cells assessed as late apoptotic cells at 20 uM incubated for 72 hrs by Annexin V-FITC/SYTOX Red staining based flow cytometric analysis (Rvb =0.04%); format: functional
[5] = Induction of apoptosis in human HepG2/ADM cells assessed as necrotic cells at 20 uM incubated for 72 hrs by Annexin V-FITC/SYTOX Red staining based flow cytometric analysis (Rvb =0%); format: functional
[6] = Induction of apoptosis in human HepG2/ADM cells assessed as viable cells at 20 uM incubated for 72 hrs in presence of ADM by Annexin V-FITC/SYTOX Red staining based flow cytometric analysis (reference value: 88.7%); format: functional; settings: read-out: Activity
[7] = Induction of apoptosis in human HepG2/ADM cells assessed as early apoptotic cells at 20 uM incubated for 72 hrs in presence of ADM by Annexin V-FITC/SYTOX Red staining based flow cytometric analysis (reference value: 8.58%); format: functional
[8] = Induction of apoptosis in human HepG2/ADM cells assessed as apoptotic cells at 20 uM incubated for 72 hrs in presence of ADM by Annexin V-FITC/SYTOX Red staining based flow cytometric analysis (reference value: 2.60%); format: functional
[9] = Induction of apoptosis in human HepG2/ADM cells assessed as necrotic cells at 20 uM incubated for 72 hrs in presence of ADM by Annexin V-FITC/SYTOX Red staining based flow cytometric analysis (Rvb =0.1%); format: functional
[10] = Drug accumulation in human HepG2 cells at 10 uM incubated for 3 hrs by flow cytometric analysis; format: ADME, cell-based; settings: hepg2, 3 h
[11] = Drug accumulation in human L02 cells at 10 uM incubated for 3 hrs by flow cytometric analysis; format: ADME, cell-based; settings: l02, 3 h
[12] = Drug localization in cellular membrane of human HepG2/ADM cells at 20 uM incubated for 2 hrs by mitotracker 633 staining based inverted confocal microscope; format: ADME, cell membranes
[13] = Drug localization in cellular membrane of human HepG2 cells at 20 uM incubated for 2 hrs by mitotracker 633 staining based inverted confocal microscope; format: ADME, cell membranes; settings: hepg2, 2 h
[14] = Drug localization in mitochondria of human HepG2/ADM cells at 20 uM incubated for 2 hrs by mitotracker 633 staining based inverted confocal microscope; format: ADME
[15] = Drug localization in mitochondria of human HepG2 cells at 20 uM incubated for 2 hrs by mitotracker 633 staining based inverted confocal microscope; format: ADME; settings: hepg2, 2 h
[16] = biological target: T1, ATP-dependent translocase ABCB1 (Homo sapiens, UniProt P08183); experiment: Inhibition of Pgp in human HepG2/ADM cells at 20 uM incubated for 2 hrs by mitotracker 633 staining based inverted confocal microscopy; format: cell-based
T1 sequence (P08183 whole entry): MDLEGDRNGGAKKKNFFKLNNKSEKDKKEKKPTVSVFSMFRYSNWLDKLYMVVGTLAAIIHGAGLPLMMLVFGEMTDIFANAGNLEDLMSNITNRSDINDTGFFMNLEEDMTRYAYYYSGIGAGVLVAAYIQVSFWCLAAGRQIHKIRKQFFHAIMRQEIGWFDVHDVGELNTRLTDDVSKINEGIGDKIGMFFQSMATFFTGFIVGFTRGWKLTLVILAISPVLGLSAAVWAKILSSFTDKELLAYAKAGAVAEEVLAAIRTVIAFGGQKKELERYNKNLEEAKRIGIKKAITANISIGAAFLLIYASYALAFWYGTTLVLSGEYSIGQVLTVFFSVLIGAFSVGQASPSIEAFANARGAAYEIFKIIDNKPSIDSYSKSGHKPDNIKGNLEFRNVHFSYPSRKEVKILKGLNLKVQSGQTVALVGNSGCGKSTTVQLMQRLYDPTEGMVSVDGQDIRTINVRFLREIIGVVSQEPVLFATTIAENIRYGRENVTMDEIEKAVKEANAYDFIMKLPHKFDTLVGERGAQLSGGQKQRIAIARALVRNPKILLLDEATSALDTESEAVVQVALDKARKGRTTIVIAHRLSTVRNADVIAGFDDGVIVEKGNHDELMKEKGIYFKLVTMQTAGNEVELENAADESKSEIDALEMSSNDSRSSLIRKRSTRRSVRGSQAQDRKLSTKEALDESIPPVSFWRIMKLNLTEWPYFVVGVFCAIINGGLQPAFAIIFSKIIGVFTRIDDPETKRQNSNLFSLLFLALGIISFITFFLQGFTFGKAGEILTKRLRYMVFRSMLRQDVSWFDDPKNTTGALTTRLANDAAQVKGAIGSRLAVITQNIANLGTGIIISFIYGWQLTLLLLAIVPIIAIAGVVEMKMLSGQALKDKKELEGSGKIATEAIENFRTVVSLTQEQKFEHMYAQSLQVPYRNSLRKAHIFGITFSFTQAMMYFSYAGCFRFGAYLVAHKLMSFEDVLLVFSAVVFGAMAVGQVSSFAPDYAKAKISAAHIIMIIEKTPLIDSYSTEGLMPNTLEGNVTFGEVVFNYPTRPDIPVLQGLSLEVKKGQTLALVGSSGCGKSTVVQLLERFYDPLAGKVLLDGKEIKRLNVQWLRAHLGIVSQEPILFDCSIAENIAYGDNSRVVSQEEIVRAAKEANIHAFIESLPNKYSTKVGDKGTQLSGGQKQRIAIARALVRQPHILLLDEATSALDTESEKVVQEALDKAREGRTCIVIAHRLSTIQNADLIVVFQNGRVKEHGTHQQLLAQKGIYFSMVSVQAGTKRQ

HepG2/Adm [17] = experiment: Downregulation of MDR1 mRNA in human HepG2/ADM cells at 5 to 20 uM incubated for 24 hrs by real time qPCR analysis; format: functional, cell-based
HepG2/Adm [18] = experiment: Downregulation of Pgp in human HepG2/ADM cells at 5 to 20 uM incubated for 48 hrs by Western blot analysis; format: functional, cell-based
HepG2/Adm [19] = experiment: Downregulation of Pgp in human HepG2/ADM cells at 20 uM incubated for 48 hrs by flow cytometric analysis; format: functional, cell-based
[20] = biological target: T1, ATP-dependent translocase ABCB1; experiment: Inhibition of Pgp in human HepG2/ADM cells assessed as increase in intracellular ADM level at 20 uM incubated for 12 hrs by flow cytometric analysis; format: cell-based
[21] = biological target: T1, ATP-dependent translocase ABCB1; experiment: Inhibition of Pgp in human HepG2/ADM cells assessed as increase in intracellular ADM level at 20 uM incubated for 2 hrs by mitotracker 633 staining based inverted confocal microscopic analysis; format: cell-based
[22] = Potency index, ratio of IC50 for human HepG2/ADM cells to IC50 for human HepG2 cells; format: functional

## O=C(O)CCCc1ccc(N(CCCl)CCCl)cc1 [CHLORAMBUCIL]
HepG2
  IC50: 190 µM
[1]
  IC50: 297 µM
L02
  IC50: > 600 µM
NIH3T3
  IC50: > 600 µM
[2]
  Activity: 9.08%
[3]
  Activity: 90.9%
[4]
  Activity: 0.01%
[5]
  Activity: 0.01%
[6]
  viability at 20 µM: 87.5%
[7]
  Activity: 12.4%
[8]
  Activity: 0.05%
[9]
  Activity: 0%

## O=C(CCCc1ccc(N(CCCl)CCCl)cc1)NCCC[n+]1ccc(/C=C/c2c[nH]c3ccc(F)cc23)cc1.[Br-]
HepG2
  IC50: 60 µM
[1]
  IC50: 60.5 µM
L02
  IC50: > 600 µM
NIH3T3
  IC50: > 600 µM
[10]
  Drug uptake: Active
[11]
  Drug uptake: Not Active
[12]
  Drug uptake: Active
[13]
  Drug uptake: Active
[14]
  Drug uptake: Active
[15]
  Drug uptake: Active
[16]
  inhibition (INH): Active
HepG2/Adm [17]
  Activity: Active
HepG2/Adm [18]
  Activity: Active
HepG2/Adm [19]
  Activity: Active
[2]
  Activity: 14.2%
[3]
  Activity: 85.7%
[4]
  Activity: 0.09%
[5]
  Activity: 0.01%
[6]
  viability at 20 µM: 33.5%
[7]
  Activity: 64%
[8]
  Activity: 2.38%
[9]
  Activity: 0%
[20]
  inhibition (INH): Active
[21]
  inhibition (INH): Active

## Cl.NCCC[n+]1ccc(/C=C/c2c[nH]c3ccc(F)cc23)cc1.[Br-]
HepG2
  IC50: 103 µM
[1]
  IC50: 102 µM
L02
  IC50: > 600 µM
NIH3T3
  IC50: > 600 µM
[2]
  Activity: 8.72%
[3]
  Activity: 88.4%
[4]
  Activity: 2.66%
[5]
  Activity: 0.25%
[6]
  viability at 20 µM: 55.6%
[7]
  Activity: 26.2%
[8]
  Activity: 17%
[9]
  Activity: 1.21%

## COc1cccc2c1C(=O)c1c(O)c3c(c(O)c1C2=O)C[C@@](O)(C(=O)CO)C[C@@H]3O[C@H]1C[C@H](N)[C@H](O)[C@H](C)O1.Cl [DOXORUBICIN HYDROCHLORIDE]
HepG2
  IC50: 0.67 µM
[1]
  IC50: 144 µM
[22]
  Ratio IC50: 215.4
